{
  "source": "ChEMBL document CHEMBL4219086",
  "about": "“Development of benzoxazole deoxybenzoin oxime and acyloxylamine derivatives targeting innate immune sensors and xanthine oxidase for treatment of gout” (Bioorg Med Chem, 2018)",
  "key": {"Rattus norvegicus [1]": {"tested_on": "Rattus norvegicus", "assay": "(§1) Antiarthritic activity in MSU-induced acute gouty arthritis Sprague-Dawley rat model assessed as reduction in ankle swelling by measuring perimeter of ankle at 10 mg/kg, po qd pretreated via gavage for 5 days followed by MSU treatment at 1 hr post last dose measured after 2 hrs (reference value: 2.82 +/- 0.75 cm)", "assay_type": "functional"}, "Mus musculus [2]": {"tested_on": "Mus musculus", "assay": "Hypouricemic effect in Kunming mouse assessed as inhibition of hepatic XOD activity at 2.5 mg/kg, po measured after 1 hr relative to control", "assay_type": "organism-based"}, "Rattus norvegicus [3]": {"tested_on": "Rattus norvegicus", "assay": "Inhibition of MSU-induced MyD88 protein level in synovial homogenate of acute gouty arthritis Sprague-Dawley rat model at 2.5 to 10 mg/kg, po qd pretreated via gavage for 5 days followed by MSU treatment at 1 hr post last dose measured up to 24 hrs by Western blot method", "assay_type": "functional, organism-based"}, "Mus musculus [4]": {"tested_on": "Mus musculus", "assay": "In vivo inhibition of XOD activity in liver of Kunming mouse model of potassium oxonate-induced hyperuricemia at 5 mg/kg, po treated 1 hr post potassium oxonate addition measured after 1 hr relative to control", "assay_type": "functional"}, "Rattus norvegicus [5]": {"tested_on": "Rattus norvegicus", "assay": "Inhibition of MSU-induced TNFalpha level in serum of acute gouty arthritis Sprague-Dawley rat model at 2.5 to 10 mg/kg, po qd pretreated via gavage for 5 days followed by MSU treatment at 1 hr post last dose measured up to 24 hrs by ELISA", "assay_type": "functional, organism-based"}, "Rattus norvegicus [6]": {"tested_on": "Rattus norvegicus", "assay": "Inhibition of MSU-induced NLRP3 protein level in synovial homogenate of acute gouty arthritis Sprague-Dawley rat model at 2.5 to 10 mg/kg, po qd pretreated via gavage for 5 days followed by MSU treatment at 1 hr post last dose measured up to 24 hrs by Western blot method", "assay_type": "functional, organism-based"}, "Mus musculus [7]": {"tested_on": "Mus musculus", "assay": "In vivo inhibition of XOD activity in liver of Kunming mouse model of potassium oxonate-induced hyperuricemia administered po 1 hr post potassium oxonate addition measured after 1 hr", "assay_type": "functional, organism-based"}, "Rattus norvegicus [8]": {"tested_on": "Rattus norvegicus", "assay": "Inhibition of MSU-induced TNFalpha level in synovial homogenate of acute gouty arthritis Sprague-Dawley rat model at 2.5 to 10 mg/kg, po qd pretreated via gavage for 5 days followed by MSU treatment at 1 hr post last dose measured up to 24 hrs by ELISA", "assay_type": "functional, organism-based"}, "Rattus norvegicus [9]": {"tested_on": "Rattus norvegicus", "assay": "as §1, with “5” for “10”, “4” for “2”, “3.18” for “2.82”, “0.64” for “0.75”", "assay_type": "functional"}, "Rattus norvegicus [10]": {"tested_on": "Rattus norvegicus", "assay": "Inhibition of MSU-induced TLR4 protein level in synovial homogenate of acute gouty arthritis Sprague-Dawley rat model at 2.5 to 10 mg/kg, po qd pretreated via gavage for 5 days followed by MSU treatment at 1 hr post last dose measured up to 24 hrs by Western blot method", "assay_type": "functional, organism-based"}, "Rattus norvegicus [11]": {"tested_on": "Rattus norvegicus", "assay": "Inhibition of MSU-induced IL-1beta level in serum of acute gouty arthritis Sprague-Dawley rat model at 2.5 to 10 mg/kg, po qd pretreated via gavage for 5 days followed by MSU treatment at 1 hr post last dose measured up to 24 hrs by ELISA", "assay_type": "functional, organism-based"}},
  "note": "Active and inactive are the calls of the source. No cut-off for these calls is given here.",
  "data": [
    {"smiles": "COc1ccc(C/C(=N\\O)c2nc3ccc(OC)cc3o2)cc1", "values": [
      {"measurement": "Activity", "setting": "Rattus norvegicus [1]", "value": 2.69, "unit": "cm"},
      {"measurement": "inhibition at 2.5 mg/kg", "setting": "Mus musculus [2]", "value": 3.7, "unit": "%"},
      {"measurement": "inhibition", "setting": "Rattus norvegicus [3]", "value": "Active"},
      {"measurement": "inhibition in vivo at 5 mg/kg", "setting": "Mus musculus [4]", "value": 35.8, "unit": "%"},
      {"measurement": "inhibition", "setting": "Rattus norvegicus [5]", "value": "Active"},
      {"measurement": "inhibition", "setting": "Rattus norvegicus [6]", "value": "Active"},
      {"measurement": "inhibition", "setting": "Mus musculus [7]", "value": "Dose-dependent effect"},
      {"measurement": "inhibition", "setting": "Rattus norvegicus [8]", "value": "Active"},
      {"measurement": "Activity", "setting": "Rattus norvegicus [9]", "value": 2.84, "unit": "cm"},
      {"measurement": "inhibition", "setting": "Rattus norvegicus [10]", "value": "Active"},
      {"measurement": "inhibition", "setting": "Rattus norvegicus [11]", "value": "Active"}
    ]}
  ]
}
